Test results as given in patent publication US20240400579A1, “SPIROCYCLIC MODULATORS OF CHOLESTEROL BIOSYNTHESIS AND THEIR USE FOR PROMOTING REMYELINATION” (GENENTECH, INC., priority 2021, published 2024).
Like-named read-outs stand apart in the source and are kept apart here.

Molecular target: human EBP (Homo sapiens (Human), UniProt Q15125)
Test: Competition binding assay (SPA) to determine compound affinity to EBP
Settings: read-out: hEBP SPA Ki
Method: Membrane preparation: To examine compound binding affinity to EBP, human EBP was overexpressed in human embryonic kidney 293 cells. Cell pellet was lysed in 10 times weight binding buffer (50 mM Tris, 5 mM MgCl2, 0.1 mM EDTA, 1× protease inhibitor cocktail, pH 7.5) on ice by using a dounce homogenizer. The solution was centrifuged at 25,000 g for 50 min at 4° C. The membrane pellet was re-suspended in binding buffer and run through a 25 5/8 gauge needle. After checking the concentration by Bradford assay, the whole cell membrane solution was adjusted to 20 mg/mL and stored at −80° C.
This binding solution was centrifuged at 400 g for 5 minutes to collect the bead/membrane mixture. After re-suspending the pellet in binding buffer at the same calculated volume with 0.01% BSA (Sigma A1933), the bead/membrane mixture was added in 384-well low-binding surface plate (PerkinElmer Cat #6057480) at 25 i/well. Radioligand at different concentrations with and without the non-radio-labeled same ligand 5 uM (for nonspecific and total signal, respectively) was added to bring final volume to 50 i/well with DMSO concentration at 0.1%. At equilibrium (3 hours after ligand addition), radiometric signal CPM was counted by using a Microbeta2 microplate counter (Perkinelmer).
Competition binding assay to determine compound affinity: The same conditions of the radioligand Kd study were used for compound single dose percentage inhibition and equilibrium dissociation constant Ki examinations, except 50 nL compound DMSO stock was pre-added in 384-well low-binding surface plate (PerkinElmer Cat #6057480) by Echo 550 (Labcyte) to reach the final concentration for single dose test at 1 uM, and dose response test from 0.06 nM to 5 uM (8 dose, 5 times dilution). A pre-incubated bead/membrane mixture was added in compound plate at 0.3 mg beads and […] membrane per well. […] At equilibrium (3 hours after ligand addition), radiometric signal was counted as described above. The percentage inhibition of compound at each testing concentration was calculated by normalizing each condition's CPM readout to full block (5 uM non-radiolabeled ligand) and non-block (DMSO) control conditions. Compound binding inhibition IC50 was determined by nonlinear regression fitting of percentage inhibition plot against compound concentration. Compound Ki was calculated from the equation Ki=IC50/(1+[L]/Kd), which [L] was radioligand concentration used in assay. All tests had N bigger or equal to 2.

[1] = radioligand [3H]-Ifenprodil 10 nM, Ki=IC50/(1+[L]/Kd), HEK293 membrane

Sequence of human EBP (Q15125 whole entry): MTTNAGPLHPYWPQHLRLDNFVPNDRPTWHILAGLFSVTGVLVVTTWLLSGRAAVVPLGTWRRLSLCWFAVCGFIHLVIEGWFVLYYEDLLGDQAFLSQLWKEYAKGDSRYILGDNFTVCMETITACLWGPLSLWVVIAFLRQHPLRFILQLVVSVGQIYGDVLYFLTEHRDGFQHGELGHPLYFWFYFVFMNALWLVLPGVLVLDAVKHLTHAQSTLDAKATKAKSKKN

| Ki [1] | Ki | SMILES |
| --- | --- | --- |
| 23 nM | – | CCC(C)(C)c1ccc(CC(C)CN2CCC3(C2)CS(=O)(=O)C3)cc1 (racemic) [Compound 107, 6-(2-Methyl-3-(4-(tert-pentyl)phenyl)propyl)-2-thia-6-azaspiro[3.4]octane 2,2-dioxide] |
| 32 nM | – | CC(Cc1ccc(C2CCC2)cc1)CN1CCC2(C1)CS(=O)(=O)C2 (racemic) [Compound 109A, 6-(3-(4-cyclobutylphenyl)-2-methylpropyl)-2-thia-6-azaspiro[3.4]octane 2,2-dioxide] |
| 27 nM | – | COC(Cc1ccc(C(F)(F)F)cc1)CN1CCC2(C1)CS(=O)(=O)C2 (racemic) [Example 143, (S)-6-(2-Methoxy-3-(4-(trifluoromethyl)phenyl)propyl)-2-thia-6-azaspiro[3.4]octane 2,2-dioxide and (R)-6-(2-methoxy-3-(4-(trifluoromethyl)phenyl)propyl)-2-thia-6-azaspiro[3.4]octane 2,2-dioxide] |
| 35 nM | – | C[C@@H](Cc1ccc(C(F)(F)F)cc1)CN1CCC2(C1)CS(=O)(=O)C2 (single isomer, unassigned) [114A*] |
| 34 nM | – | C[C@H](Cc1ccc(C(F)(F)F)cc1)CN1CCC2(C1)CS(=O)(=O)C2 (single isomer, unassigned) [114B*] |
| 21 nM | – | C[C@@H](Cc1cnc(C(F)(F)F)nc1)CN1CCC2(CC1)CS(=O)(=O)C2 (single isomer, unassigned) [215A*] |
| 25 nM | – | C[C@H](Cc1cnc(C(F)(F)F)nc1)CN1CCC2(CC1)CS(=O)(=O)C2 (single isomer, unassigned) [215B*] |
| – | 10 nM | C[C@@H](CN1CCC2(CC1)CS(=O)(=O)C2)Oc1ccc(F)c(F)c1 (single isomer, unassigned) [221A*] |
| 18 nM | – | O=S1(=O)CC2(CCN(CC[C@H](F)c3ccc(C(F)(F)F)cc3)C2)C1 (single isomer, unassigned) [Compound 122B] |
| 56 nM | – | C[C@@H](Cc1ccc(C(F)F)cc1)CN1CCC2(C1)CS(=O)(=O)C2 (single isomer, unassigned) [Compound 128A] |
| 44 nM | – | CC(C)(CN1CC[C@@]2(CCS(=O)(=O)C2)C1)Oc1ccc(C(F)(F)F)cc1 (single isomer, unassigned) [Compound 141A] |
| 61 nM | – | CC(C)(CN1CC[C@]2(CCS(=O)(=O)C2)C1)Oc1ccc(C(F)(F)F)cc1 (single isomer, unassigned) [Compound 141B] |
| 32 nM | – | CC(C)(Cc1ccc(C(F)(F)F)nc1)CN1CC[C@@]2(CCS(=O)(=O)C2)C1 (single isomer, unassigned) [Compound 148B] |
| 28 nM | – | O=S1(=O)CC2(CCN(CCOc3ccc(C(F)(F)F)cc3)C2)C1 [Compound 112, 6-(2-(4-(Trifluoromethyl)phenoxy)ethyl)-2-thia-6-azaspiro[3.4]octane-2,2-dioxide] |
| 22 nM | – | O=S1(=O)CC2(CCN(CCOc3ccc(C(F)(F)F)nc3)CC2)C1 [Compound 230, 7-(2-((6-(Trifluoromethyl)pyridin-3-yl)oxy)ethyl)-2-thia-7-azaspiro[3.5]nonane 2,2-dioxide] |
| 21 nM | – | CC(C)(CN1CCC2(C1)CS(=O)(=O)C2)Oc1ccc(C2CCC2)cc1 [Example 129, 6-(2-(4-Cyclobutylphenoxy)-2-methylpropyl)-2-thia-6-azaspiro[3.4]octane-2,2-dioxide] |
| 16 nM | – | CC(C)(CN1CCC2(C1)CS(=O)(=O)C2)Oc1cccc(C(F)(F)F)c1 [Example 130, 6-(2-Methyl-2-(3-(trifluoromethyl)phenoxy)propyl)-2-thia-6-azaspiro[3.4]octane-2,2-dioxide] |
| 31 nM | – | CC(C)(CN1CCC2(C1)CS(=O)(=O)C2)Oc1cccc(OC(F)(F)F)c1 [Example 131, 6-(2-Methyl-2-(3-(trifluoromethoxy)phenoxy)propyl)-2-thia-6-azaspiro[3.4]octane 2,2-dioxide] |
| 29 nM | – | CC(C)(CN1CCC2(C1)CS(=O)(=O)C2)Oc1ccc(C(F)(F)F)nc1 [Example 135, 6-(2-Methyl-2-((6-(trifluoromethyl)pyridin-3-yl)oxy)propyl)-2-thia-6-azaspiro[3.4]octane-2,2-dioxide] |
| 29 nM | – | CC(C)(CN1CCC2(C1)CS(=O)(=O)C2)Oc1ccc(OC(F)(F)F)cc1 [Example 136, 6-(2-Methyl-2-(4-(trifluoromethoxy)phenoxy)propyl)-2-thia-6-azaspiro[3.4]octane 2,2-dioxide] |
| 16 nM | – | CC(C)(CN1CCC2(CC1)CS(=O)(=O)C2)Oc1ccc(C(F)(F)F)cc1 [Example 138, 7-(2-Methyl-2-(4-(trifluoromethyl)phenoxy)propyl)-2-thia-7-azaspiro[3.5]nonane 2,2-dioxide] |
| 30 nM | – | CC(C)(Cc1ccc(C2CCC(F)(F)CC2)c(Cl)c1)CN1CCC2(C1)CS(=O)(=O)C2 [Example 139, 6-(3-(3-Chloro-4-(4,4-difluorocyclohexyl)phenyl)-2,2-dimethylpropyl)-2-thia-6-azaspiro[3.4]octane 2,2-dioxide] |
| 18 nM | – | CC(C)(Cc1ccc(C(F)(F)F)nc1)CN1CCC2(C1)CS(=O)(=O)C2 [Example 140, 6-(2,2-Dimethyl-3-(6-(trifluoromethyl)pyridin-3-yl)propyl)-2-thia-6-azaspiro[3.4]octane-2,2-dioxide] |
| 53 nM | – | CC(C)(CN1CCC2(C1)CS(=O)(=O)C2)Oc1cnc(C(F)(F)F)nc1 [Example 144, 6-(2-Methyl-2-((2-(trifluoromethyl)pyrimidin-5-yl)oxy)propyl)-2-thia-6-azaspiro[3.4]octane-2,2-dioxide] |
| 25 nM | – | O=S1(=O)CC2(CCN(CC3(Cc4ccc(C(F)(F)F)nc4)CC3)C2)C1 [Example 157, 6-((1-((6-(Trifluoromethyl)pyridin-3-yl)methyl)cyclopropyl)methyl)-2-thia-6-azaspiro[3.4]octane 2,2-dioxide] |
| 13 nM | – | O=S1(=O)CCC2(CC1)CN(CCOc1ccc(C(F)(F)F)cc1)C2 [Example 201, 2-(2-(4-(Trifluoromethyl)phenoxy)ethyl)-7-thia-2-azaspiro[3.5]nonane 7,7-dioxide] |

| SMILES | Ki [1] | Ki |
| --- | --- | --- |
| C[C@@H](Cc1ccc(C(F)(F)F)nc1)CN1CCC2(C1)CS(=O)(=O)C2 (single isomer, unassigned) [118A*] | 26 nM | – |
| C[C@@H](Cc1ccnc(C(F)(F)F)c1)CN1CCC2(C1)CS(=O)(=O)C2 (single isomer, unassigned) [Compound 126A] | 30 nM | – |
| C[C@H](Cc1ccnc(C(F)(F)F)c1)CN1CCC2(C1)CS(=O)(=O)C2 (single isomer, unassigned) [Compound 126B] | 120 nM | – |
| C[C@@H](Cc1cnc(C(F)(F)F)nc1)CN1CCC2(C1)CS(=O)(=O)C2 (single isomer, unassigned) [Compound 145A] | 56 nM | – |
